Where two headings read alike, the source gives them in different places.
Legend:
[1] = test system: Akt phosphorylated at Thr308 in PC-3 cells; test: Cellular assay: phosphorylation of Akt at Thr308 in PC-3 cells (MSD ELISA); type: cell-based; conditions: PC-3 cells, 60 min compound incubation, MSD ELISA, read-out: IC50 pAkt_Thr308
Experimental: (§1) Cellular activity of PI3KP inhibitors was determined by quantifying the phosphorylation of Akt in PC-3 cells. Akt phosphorylated at Ser473 and Thr308 were measured using an enzyme-linked immunosorbent assay (ELISA; Meso Scale Discovery (MSD), Gaithersburg. Md.) and specific primary antibodies from MSD.
(§2) On day 2, compound or DMSO (0.3%) was added and cells were further incubated for 60 min at 37° C. 5% CO2 in a total volume of 100 μl of medium.
(§3) The phosphoprotein assay was executed according to vendor instructions in the Phospho-Akt (Ser473) Assay Whole Cell Lysate Kit (MSD # K15100D-3) and the Phospho-Akt (Thr308) Assay Whole Cell Lysate Kit (MSD # K151DYD-3) using the lysis, blocking and wash buffer provided.
(§4) Briefly, at the end of the cell treatment period, media were removed by aspiration and adherent cells were lysed in 50 μl ice-cold lysis buffer. MSD plates are supplied pre-coated with capture antibodies for Phospho-Akt (Ser473 and Thr308). After blocking, lysates from tissue culture plates were added and plates were washed. Then, a solution containing the detection antibody (anti-total Akt conjugated with an electrochemiluminescent compound-MSD Sulfo-tag label) was added. The signals were detected using an MSD SECTOR Imager 6000 and are proportional to the phospho-Akt titres.
(§5) Data were processed. […] From these concentration-response curves, the IC50 values were calculated. Five concentrations were used for curve fitting.

PI3Kδ = target: T1, PI3Kδ (Homo sapiens, UniProt O00329); test: Enzyme binding assay (KINOMEscan, DiscoveRx); conditions: PIK3Cδ_h
T1 construct: purchased DiscoveRx Corporation, San Diego (contract service, KINOMEscan)
T1 sequence (O00329 1-1044): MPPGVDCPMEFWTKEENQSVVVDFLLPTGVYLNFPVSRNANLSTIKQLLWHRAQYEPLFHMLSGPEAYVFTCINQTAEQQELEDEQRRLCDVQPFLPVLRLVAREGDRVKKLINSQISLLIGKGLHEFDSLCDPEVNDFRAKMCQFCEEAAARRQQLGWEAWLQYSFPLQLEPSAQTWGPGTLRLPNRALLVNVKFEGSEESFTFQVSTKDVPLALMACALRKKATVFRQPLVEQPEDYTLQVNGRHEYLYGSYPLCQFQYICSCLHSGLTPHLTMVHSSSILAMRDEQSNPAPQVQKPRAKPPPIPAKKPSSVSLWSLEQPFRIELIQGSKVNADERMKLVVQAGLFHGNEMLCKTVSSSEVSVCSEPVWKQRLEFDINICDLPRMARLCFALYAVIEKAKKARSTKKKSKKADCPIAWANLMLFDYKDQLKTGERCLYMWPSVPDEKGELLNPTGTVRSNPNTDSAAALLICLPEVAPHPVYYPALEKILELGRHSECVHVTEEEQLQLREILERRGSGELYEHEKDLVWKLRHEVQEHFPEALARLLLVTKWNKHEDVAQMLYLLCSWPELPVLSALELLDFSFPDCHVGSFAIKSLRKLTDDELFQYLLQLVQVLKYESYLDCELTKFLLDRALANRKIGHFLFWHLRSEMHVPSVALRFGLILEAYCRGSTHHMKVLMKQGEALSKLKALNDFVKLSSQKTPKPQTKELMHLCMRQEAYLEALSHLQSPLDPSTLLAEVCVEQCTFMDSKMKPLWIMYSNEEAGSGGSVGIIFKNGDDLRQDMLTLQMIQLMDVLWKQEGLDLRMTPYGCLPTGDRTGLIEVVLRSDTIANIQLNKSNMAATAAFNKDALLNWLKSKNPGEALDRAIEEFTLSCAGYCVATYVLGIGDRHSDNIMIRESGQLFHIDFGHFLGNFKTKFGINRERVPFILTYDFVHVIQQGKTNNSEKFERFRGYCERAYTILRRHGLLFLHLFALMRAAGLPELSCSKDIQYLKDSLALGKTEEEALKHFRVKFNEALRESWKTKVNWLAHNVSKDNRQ
Experimental: (§6) Enzyme Binding Assays (KINOMEscan®)
(§7) Kinase enzyme binding affinities of compounds disclosed herein were determined using the KINOMEscan technology performed by DiscoveRx Corporation, San Diego, Calif., USA (www.kinomescan.com).

kinase enzymes [2] = target: T2, kinase enzymes (Homo sapiens, UniProt P48736); test: Enzyme binding assay (KINOMEscan, DiscoveRx), further kinases of Table A; conditions: PIK3Cγ_h
T2 construct: purchased DiscoveRx Corporation, San Diego (contract service, KINOMEscan)
T2 sequence (P48736 whole entry): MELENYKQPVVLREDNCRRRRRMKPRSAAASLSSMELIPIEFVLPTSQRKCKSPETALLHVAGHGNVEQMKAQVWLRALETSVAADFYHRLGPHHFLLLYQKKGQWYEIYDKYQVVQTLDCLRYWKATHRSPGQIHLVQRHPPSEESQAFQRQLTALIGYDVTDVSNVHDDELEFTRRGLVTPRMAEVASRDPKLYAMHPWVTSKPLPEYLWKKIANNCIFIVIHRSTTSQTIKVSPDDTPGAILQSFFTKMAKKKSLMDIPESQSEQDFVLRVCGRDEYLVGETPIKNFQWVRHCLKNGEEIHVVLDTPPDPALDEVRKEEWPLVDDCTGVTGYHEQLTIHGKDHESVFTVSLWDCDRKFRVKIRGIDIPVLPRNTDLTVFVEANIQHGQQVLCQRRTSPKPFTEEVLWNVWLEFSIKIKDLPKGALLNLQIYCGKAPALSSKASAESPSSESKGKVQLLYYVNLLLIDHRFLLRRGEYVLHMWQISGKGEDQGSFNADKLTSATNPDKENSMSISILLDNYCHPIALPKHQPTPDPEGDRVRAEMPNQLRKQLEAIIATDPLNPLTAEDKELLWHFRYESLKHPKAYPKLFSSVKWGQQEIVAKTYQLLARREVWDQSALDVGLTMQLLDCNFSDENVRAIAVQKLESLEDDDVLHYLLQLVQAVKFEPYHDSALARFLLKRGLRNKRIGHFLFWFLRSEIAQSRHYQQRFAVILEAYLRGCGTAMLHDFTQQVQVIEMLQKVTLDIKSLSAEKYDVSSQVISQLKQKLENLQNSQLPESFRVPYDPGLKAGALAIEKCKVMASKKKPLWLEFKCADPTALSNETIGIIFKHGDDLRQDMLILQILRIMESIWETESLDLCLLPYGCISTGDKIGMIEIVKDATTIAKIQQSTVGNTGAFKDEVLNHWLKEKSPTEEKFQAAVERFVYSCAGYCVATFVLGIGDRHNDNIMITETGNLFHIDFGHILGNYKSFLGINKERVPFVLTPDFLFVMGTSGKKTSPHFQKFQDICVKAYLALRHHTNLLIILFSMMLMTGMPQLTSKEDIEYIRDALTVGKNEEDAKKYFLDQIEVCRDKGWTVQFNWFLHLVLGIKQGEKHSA
Experimental: as §6, §7

kinase enzymes [3] = target: T3, kinase enzymes (Homo sapiens, UniProt P42345); test: as above; conditions: MTOR_h
T3 construct: purchased DiscoveRx Corporation, San Diego (contract service, KINOMEscan)
Experimental: as §6, §7

kinase enzymes [4] = target: T4, kinase enzymes (Homo sapiens, UniProt P42336); test: as above; conditions: PIK3Cα_h
T4 construct: purchased DiscoveRx Corporation, San Diego (contract service, KINOMEscan)
T4 sequence (P42336 whole entry): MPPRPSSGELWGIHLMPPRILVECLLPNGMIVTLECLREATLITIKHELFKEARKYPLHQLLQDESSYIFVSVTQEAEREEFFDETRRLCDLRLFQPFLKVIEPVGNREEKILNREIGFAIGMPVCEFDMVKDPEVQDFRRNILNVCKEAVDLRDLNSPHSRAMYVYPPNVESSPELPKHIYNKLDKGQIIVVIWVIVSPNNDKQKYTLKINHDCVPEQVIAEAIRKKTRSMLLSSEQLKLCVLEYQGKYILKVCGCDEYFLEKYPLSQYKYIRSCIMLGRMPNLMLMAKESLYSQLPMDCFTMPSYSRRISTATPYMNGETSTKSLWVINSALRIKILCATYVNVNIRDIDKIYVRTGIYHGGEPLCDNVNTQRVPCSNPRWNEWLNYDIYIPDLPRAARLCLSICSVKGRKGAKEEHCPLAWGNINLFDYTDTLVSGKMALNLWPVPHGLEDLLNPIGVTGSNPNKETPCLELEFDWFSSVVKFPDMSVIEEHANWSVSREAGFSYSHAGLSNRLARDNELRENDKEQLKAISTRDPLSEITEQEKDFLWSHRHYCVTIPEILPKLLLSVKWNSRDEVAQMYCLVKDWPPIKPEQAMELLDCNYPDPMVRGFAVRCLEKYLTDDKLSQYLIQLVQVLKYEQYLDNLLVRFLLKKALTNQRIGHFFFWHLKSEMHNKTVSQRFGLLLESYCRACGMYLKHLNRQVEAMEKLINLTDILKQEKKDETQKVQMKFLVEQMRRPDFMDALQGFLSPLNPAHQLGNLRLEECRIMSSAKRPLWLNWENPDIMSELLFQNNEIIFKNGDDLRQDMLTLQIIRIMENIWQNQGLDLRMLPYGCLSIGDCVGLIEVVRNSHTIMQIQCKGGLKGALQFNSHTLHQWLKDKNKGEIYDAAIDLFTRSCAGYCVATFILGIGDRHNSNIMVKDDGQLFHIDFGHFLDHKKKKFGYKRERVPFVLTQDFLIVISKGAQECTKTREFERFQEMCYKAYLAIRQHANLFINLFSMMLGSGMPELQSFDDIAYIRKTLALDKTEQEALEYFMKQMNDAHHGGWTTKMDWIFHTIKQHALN
Experimental: as §6, §7

PI3Kβ = target: T5, PI3Kβ (Homo sapiens, UniProt P42338); test: Enzyme binding assay (KINOMEscan, DiscoveRx); conditions: PIK3Cβ_h, read-out: Kd PIK3Cβ_h
T5 construct: purchased DiscoveRx Corporation, San Diego (contract service, KINOMEscan)
T5 sequence (P42338 whole entry): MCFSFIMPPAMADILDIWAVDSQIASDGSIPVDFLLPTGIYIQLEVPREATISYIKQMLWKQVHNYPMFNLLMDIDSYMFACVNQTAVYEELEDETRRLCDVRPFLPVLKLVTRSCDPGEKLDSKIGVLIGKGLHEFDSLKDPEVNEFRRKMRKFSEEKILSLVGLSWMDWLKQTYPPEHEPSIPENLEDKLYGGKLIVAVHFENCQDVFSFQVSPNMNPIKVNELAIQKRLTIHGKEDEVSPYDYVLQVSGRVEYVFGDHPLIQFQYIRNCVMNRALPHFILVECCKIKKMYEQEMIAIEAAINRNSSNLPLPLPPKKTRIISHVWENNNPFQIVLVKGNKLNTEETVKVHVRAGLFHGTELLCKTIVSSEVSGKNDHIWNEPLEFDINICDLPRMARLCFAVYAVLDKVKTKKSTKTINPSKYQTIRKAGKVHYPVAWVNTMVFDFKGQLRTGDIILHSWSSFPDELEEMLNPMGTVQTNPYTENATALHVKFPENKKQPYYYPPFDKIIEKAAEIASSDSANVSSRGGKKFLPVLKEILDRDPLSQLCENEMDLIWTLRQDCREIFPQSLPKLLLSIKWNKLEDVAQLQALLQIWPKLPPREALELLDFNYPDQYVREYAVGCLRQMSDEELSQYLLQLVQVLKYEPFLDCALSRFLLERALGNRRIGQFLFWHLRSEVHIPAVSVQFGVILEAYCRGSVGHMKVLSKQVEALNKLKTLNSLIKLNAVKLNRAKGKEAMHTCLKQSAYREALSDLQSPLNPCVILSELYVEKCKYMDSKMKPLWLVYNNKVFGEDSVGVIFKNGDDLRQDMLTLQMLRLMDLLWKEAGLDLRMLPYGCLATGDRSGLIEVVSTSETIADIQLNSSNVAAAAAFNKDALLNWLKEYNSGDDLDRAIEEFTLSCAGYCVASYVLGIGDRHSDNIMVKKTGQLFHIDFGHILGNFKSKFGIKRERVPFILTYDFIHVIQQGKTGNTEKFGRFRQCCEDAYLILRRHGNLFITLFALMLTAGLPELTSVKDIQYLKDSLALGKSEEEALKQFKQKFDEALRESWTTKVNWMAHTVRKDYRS
Experimental: as §6
Kinase enzyme binding affinities of compounds disclosed herein were determined using the KINOMEscan technology performed by DiscoveRx Corporation, San Diego, Calif., USA (www.kinomescan.com). Table A reports the obtained Kd values (nM), with the Kd being the inhibitor binding constant: […]

[5] = test system: Akt phosphorylated at Ser473 in PC-3 cells; test: Cellular assay: phosphorylation of Akt at Ser473 in PC-3 cells (MSD ELISA); type: cell-based; conditions: PC-3 cells, 60 min compound incubation, MSD ELISA, read-out: IC50 pAkt_S473
Experimental: as §1, §2, §3, §4, §5

| Structure (SMILES) | IC50 ([1]; Homo sapiens, PC-3, 1 h) [nM] | Kd (PI3Kδ) [nM] | Kd (kinase enzymes [2]) [nM] | Kd (kinase enzymes [3]) [nM] | Kd (kinase enzymes [4]) [nM] | Kd (PI3Kβ) [nM] | IC50 ([5]; Homo sapiens, PC-3, 1 h) [nM] | IC50 [1] [nM] | IC50 [5] [nM] |
| --- | --- | --- | --- | --- | --- | --- | --- | --- | --- |
| CC(Oc1cc(F)cc(F)c1)c1cc(C(=O)N2CCC2)cc2ncc(N3CCO[C@H](CO)C3)nc12 (mixture of isomers) [Compound 81] | 219 | 2630 | 29500 | > 30200 | 19100 | 30 | ~490 | – | – |
| CC(Oc1cc(F)cc(F)c1)c1cc(C(=O)N(C)CCO)cc2ncc(N3CCOCC3)nc12 (racemic) [Compound 59] | 110 | 331 | 10700 | > 30200 | 1200 | 3 | 263 | – | – |
| CC(C)NCCNC(=O)c1cc(C(C)Oc2ccc(F)c(F)c2)c2nc(N3CCOCC3)cnc2c1 (racemic) [Compound 286] | – | 2040 | 17000 | > 30200 | 7410 | 18 | – | 245 | 398 |
| CC(Oc1cccc(F)c1)c1cc(C(=O)N(C)C)cc2ncc(N3CCOCC3)nc12 (racemic) [Compound 339] | – | 2460 | 9330 | 16200 | 5890 | 427 | – | > 513 | > 513 |
| CC(Oc1cc(F)cc(F)c1)c1cc(C(=O)N(C)C)cc2ncc(N3CCOCC3)nc12 (single isomer, unassigned) [Compound 5] | – | 225 | 7980 | 25100 | 1590 | 2 | – | 99 | 100 |
| CC(Oc1cc(F)cc(F)c1)c1cc(C(=O)N(C)C)cc2ncc(N3CCOCC3)nc12 (single isomer, unassigned) [Compound 6] | – | 16900 | > 30200 | > 30200 | 26000 | 1890 | – | > 513 | > 513 |
| CC(Nc1cc(F)cc(F)c1)c1cc(C(=O)N2CCOCC2)cc2ncc(N3CCOCC3)nc12 (single isomer, unassigned) [Compound 9] | – | 18200 | > 30200 | > 30200 | 27500 | 417 | – | > 513 | > 513 |
| CC(O)c1cc(C2CCCN2c2cc(F)cc(F)c2)c2nc(N3CCOCC3)cnc2c1 (single isomer, unassigned) [Compound 15] | – | 43 | 372 | > 30200 | 234 | 1 | – | 2 | 4 |
| C[C@@H]1CN(c2cnc3cc(C(=O)N(C)C)cc(C4CCCN4c4cccc(F)c4)c3n2)CCO1 (single isomer, unassigned) [Compound 29] | – | 21900 | > 30200 | 23400 | 10200 | 1660 | – | > 513 | > 513 |
| C[C@@H]1CN(c2cnc3cc(C(=O)N(C)C)cc(C4CCCN4c4cccc(F)c4)c3n2)CCO1 (single isomer, unassigned) [Compound 30] | – | 18 | 407 | 21900 | 39 | 1 | – | ~4 | 5 |
| CN1CCN(C(=O)c2cc(C3CCCN3c3cc(F)cc(F)c3)c3nc(N4CCOCC4)cnc3c2)CC1 (single isomer, unassigned) [Compound 58] | – | 912 | 18600 | > 30200 | 2000 | 9 | – | 295 | > 513 |
| CC(Oc1cc(F)cc(F)c1)c1cc(C(=O)N(C)CCO)cc2ncc(N3CCOCC3)nc12 (single isomer, unassigned) [Compound 60] | – | 15500 | > 30200 | > 30200 | 22900 | 490 | – | > 513 | > 513 |
| CC(Oc1cc(F)cc(F)c1)c1cc(C(=O)N(C)CCO)cc2ncc(N3CCOCC3)nc12 (single isomer, unassigned) [Compound 61] | – | 209 | 5250 | > 30200 | 676 | 2 | – | 123 | 182 |
| CC(Oc1cccc(F)c1F)c1cc(C(=O)N(C)C)cc2ncc(N3CCOCC3)nc12 (single isomer, unassigned) [Compound 73] | 331 | 282 | 19500 | > 30200 | 2040 | 9 | > 513 | – | – |
| CC(Oc1cccc(F)c1F)c1cc(C(=O)N(C)C)cc2ncc(N3CCOCC3)nc12 (single isomer, unassigned) [Compound 74] | – | 5620 | > 30200 | 23400 | 8510 | 603 | – | > 513 | > 513 |
| CC(Oc1cccc(F)c1)c1cc(CO)cc2ncc(N3CCOCC3)nc12 (single isomer, unassigned) [Compound 88] | – | 603 | 4680 | 14100 | 2140 | 5 | – | 89 | 178 |
| CC(Oc1cccc(F)c1)c1cc(CO)cc2ncc(N3CCOCC3)nc12 (single isomer, unassigned) [Compound 89] | – | 11700 | 9550 | 13500 | 7240 | 832 | – | > 513 | > 513 |
| CCN1CCN(C(=O)c2cc(C(C)Oc3cccc(F)c3)c3nc(N4CCOCC4)cnc3c2)CC1 (single isomer, unassigned) [Compound 91] | – | 1230 | 21400 | > 30200 | 4470 | 10 | > 513 | 234 | – |
| CCN1CCN(C(=O)c2cc(C(C)Oc3cccc(F)c3)c3nc(N4CCOCC4)cnc3c2)CC1 (single isomer, unassigned) [Compound 92] | – | 16600 | > 30200 | > 30200 | 16200 | 1020 | – | > 513 | > 513 |
| OC(CN1CCC1)c1cc(C2CCCN2c2cc(F)cc(F)c2)c2nc(N3CCOCC3)cnc2c1 (single isomer, unassigned) [Compound 95] | – | 178 | 1100 | > 30200 | 295 | 0.5 | – | 18 | 34 |

— patent publication US10526316B2, “Quinoxaline and pyridopyrazine derivatives as PI3Kβ inhibitors” (Janssen Pharmaceutica NV, priority 2015, dated 2020)
